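Results reflect a 48-hour exposure of cells in 96-well plates to compound at five concentrations. The concentration for 50% growth inhibition is given as GI50. TGI denotes the concentration required for complete inhibition of growth.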
Tests used:
Assay in all cases: growth of human tumour cells (NCI), 48 h
[1] = tested on: BT-549 breast
[2] = tested on: A498 renal
[3] = tested on: SNB-75 CNS
[4] = tested on: TK-10 renal
[5] = tested on: MALME-3M melanoma
[6] = tested on: SR leukemia
[7] = tested on: KM12 colon
[8] = tested on: U251 CNS
[9] = tested on: T-47D breast
[10] = tested on: HCT-15 colon

## CC(C)(C)c1cc(-n2c(-c3ccc(Cl)cc3)nc3cc(C(=O)Nc4ccc(Cl)cc4)ccc32)n[nH]1
[1]
  GI50: 5.75 µM
  TGI: > 100 µM
[2]
  GI50: 1.99 µM
  TGI: > 100 µM
[3]
  GI50: 7.08 µM
  TGI: 26.4 µM
[4]
  GI50: 3.66 µM
  TGI: > 100 µM
[5]
  GI50: 5.29 µM
  TGI: > 100 µM
[6]
  GI50: > 100 µM
  TGI: > 100 µM
[7]
  GI50: 2.76 µM
  TGI: > 100 µM
[8]
  GI50: 6.63 µM
  TGI: > 100 µM
[9]
  GI50: 3.72 µM
  TGI: > 100 µM

## O=c1[nH]c(=S)[nH]c2c1CN(CCCN1CCOCC1)CN2
[1]
  TGI: > 100 µM
[2]
  TGI: > 100 µM
[4]
  TGI: > 100 µM
[5]
  TGI: 42.3 µM
[6]
  TGI: > 100 µM
[7]
  TGI: 95.9 µM
[8]
  TGI: > 100 µM
[9]
  TGI: > 100 µM
[10]
  TGI: > 100 µM

## CC(=O)C1=C(O)C=C2Oc3c(C(=O)/C=C/c4c(Cl)cccc4Cl)c(O)c(C)c(O)c3[C@]2(C)C1=O
[1]
  GI50: 1.43 µM
  TGI: 5.28 µM
[2]
  GI50: 1.6 µM
  TGI: 3.66 µM
[3]
  GI50: 2.12 µM
  TGI: 4.76 µM
[4]
  GI50: 0.728 µM
  TGI: 5.17 µM
[5]
  GI50: 2.1 µM
  TGI: 4.96 µM
[6]
  GI50: 1.52 µM
  TGI: 7.7 µM
[7]
  GI50: 1.15 µM
  TGI: 3.99 µM
[8]
  GI50: 0.754 µM
  TGI: 4.09 µM
[9]
  GI50: 0.38 µM
  TGI: 2.41 µM
[10]
  GI50: 0.668 µM
  TGI: 2.94 µM

## C[C@@]12CCC[C@@](C)(C(=O)O)C1CC[C@]13C[C@@](O)(CO)[C@](O)(CCC12)C3 (some centres not stated)
[1]
  GI50: > 100 µM
  TGI: > 100 µM
[2]
  GI50: > 100 µM
  TGI: > 100 µM
[3]
  GI50: > 100 µM
  TGI: > 100 µM
[4]
  GI50: > 100 µM
  TGI: > 100 µM
[5]
  GI50: > 100 µM
  TGI: > 100 µM
[6]
  GI50: 55.3 µM
  TGI: > 100 µM
[7]
  GI50: > 100 µM
  TGI: > 100 µM
[8]
  GI50: > 100 µM
  TGI: > 100 µM
[9]
  GI50: > 100 µM
  TGI: > 100 µM
[10]
  GI50: > 100 µM
  TGI: > 100 µM

## [N-]=[N+]=NCCCCCC(=O)OC(C(=O)c1ccccc1)c1cccc(OCC(=O)NCCOCCOCCNC(=O)CCCC[C@@H]2SC[C@@H]3NC(=O)N[C@@H]32)c1 (some centres not stated)
[1]
  GI50: 26.2 µM
  TGI: 84.7 µM
[2]
  GI50: > 100 µM
  TGI: > 100 µM
[3]
  GI50: 95.8 µM
  TGI: > 100 µM
[4]
  GI50: > 100 µM
  TGI: > 100 µM
[5]
  GI50: > 100 µM
  TGI: > 100 µM
[6]
  GI50: 22.6 µM
  TGI: 60 µM
[7]
  GI50: > 100 µM
  TGI: > 100 µM
[8]
  GI50: > 100 µM
  TGI: > 100 µM
[9]
  GI50: 60.7 µM
  TGI: > 100 µM
[10]
  GI50: > 100 µM
  TGI: > 100 µM

## c1ccc(CN2COc3c(ccc4c3OCN(Cc3ccccc3)C4)C2)cc1
[1]
  GI50: 2.92 µM
  TGI: > 100 µM
[2]
  GI50: 1.19 µM
  TGI: > 30.3 µM
[3]
  GI50: 2.09 µM
  TGI: > 100 µM
[4]
  GI50: 0.464 µM
  TGI: > 100 µM
[5]
  GI50: 3.06 µM
  TGI: > 100 µM
[6]
  GI50: 0.534 µM
  TGI: > 100 µM
[7]
  GI50: 0.621 µM
  TGI: > 100 µM
[8]
  GI50: 0.382 µM
  TGI: > 100 µM
[9]
  GI50: 0.96 µM
  TGI: > 100 µM
[10]
  GI50: 0.0906 µM
  TGI: > 100 µM
